Experimental data published in patent US11661426B2, “Imidazole-containing inhibitors of ALK2 kinase” (BioCryst Pharmaceuticals, Inc., priority 2017, dated 2023).

Target: ALK2 (Homo sapiens (Human), UniProt Q04771)
Assay: ALK2 inhibition, LanthaScreen Eu Kinase Binding Assay (ThermoFisher Scientific / Life Technologies)
Conditions: read-out: Measured Ki (IC50) Value for Compounds: IC50
Experimental: Biochemical assays to measure the inhibitory effects of the compounds were performed by ThermoFisher Scientific (Life Technologies). ALK2 inhibition was tested using LanthaScreen™ Eu Kinase Binding Assay screening protocol.

ALK2, sequence (Q04771 21-509): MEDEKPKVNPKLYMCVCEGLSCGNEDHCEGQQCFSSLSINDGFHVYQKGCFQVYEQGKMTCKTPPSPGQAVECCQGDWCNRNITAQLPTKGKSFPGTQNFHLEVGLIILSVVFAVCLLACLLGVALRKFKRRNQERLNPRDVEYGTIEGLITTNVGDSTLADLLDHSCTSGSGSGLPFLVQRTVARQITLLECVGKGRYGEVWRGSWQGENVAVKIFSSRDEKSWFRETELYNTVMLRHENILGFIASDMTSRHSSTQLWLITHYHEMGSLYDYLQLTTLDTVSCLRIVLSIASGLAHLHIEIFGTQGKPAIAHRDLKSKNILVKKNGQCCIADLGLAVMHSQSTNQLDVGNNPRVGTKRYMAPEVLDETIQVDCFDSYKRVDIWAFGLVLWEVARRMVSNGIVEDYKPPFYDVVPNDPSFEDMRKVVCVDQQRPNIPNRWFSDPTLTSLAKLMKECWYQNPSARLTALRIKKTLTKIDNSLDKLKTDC

Structure (SMILES) | IC50 [nM]
C[C@H](Nc1nc(Nc2cn(-c3ccccc3)cn2)c2sccc2n1)c1ccccc1 [Compound 17a, (S)—N4-(1-phenyl-1H-imidazol-4-yl)-N2-(1-phenylethyl)thieno[3,2-d]pyrimidine-2,4-diamine] | 100 to 1000
COc1cc(-n2cnc(Nc3nc(N4CCC[C@H]4C(N)=O)c4[nH]ccc4n3)c2)cc(OC)c1OC [Compound 191c, (S)-1-(2-((1-(3,4,5-trimethoxyphenyl)-1H-imidazol-4-yl)amino)-5H-pyrrolo[3,2-d]pyrimidin-4-yl)pyrrolidine-2-carboxamide] | < 100
OC[C@@H]1CCCN1c1nc(Nc2cn(-c3cn(C4CCCCC4)cn3)cn2)c2cccn2n1 [Compound 452d, (S)-(1-(4-((1′-cyclohexyl-1′H-[1,4′-biimidazol]-4-yl)amino)pyrrolo[2,1-f][1,2,4]triazin-2-yl)pyrrolidin-2-yl)methanol] | 100 to 1000
COc1cc(-n2cnc(Nc3nc(N4CCC[C@@H]4C(N)=O)nc4ccccc34)c2)cc(OC)c1OC [Compound 305a, (R)-1-(4-((1-(3,4,5-trimethoxyphenyl)-1H-imidazol-4-yl)amino)quinazolin-2-yl)pyrrolidine-2-carboxamide] | < 100
COc1cc(-n2cnc(Nc3nc(N4CCC[C@H]4CO)nc4sc(CN5CCOCC5)cc34)c2)cc(OC)c1OC [Compound 97d, (S)-(1-(6-(morpholinomethyl)-4-((1-(3,4,5-trimethoxyphenyl)-1H-imidazol-4-yl)amino)thieno[2,3-d]pyrimidin-2-yl)pyrrolidin-2-yl)methanol] | < 100
COc1cc(-n2cnc(Nc3nc(N4CCN(C)CC4)nn4cccc34)c2)cc(OC)c1OC [Compound 334a, 2-(4-methylpiperazin-1-yl)-N-(1-(3,4,5-trimethoxyphenyl)-1H-imidazol-4-yl)pyrrolo[2,1-f][1,2,4]triazin-4-amine] | < 100
COc1cc(-n2cnc(Nc3nc(N4CCCC4)c4cccnc4n3)c2)cc(OC)c1OC [Compound 192b, 4-(pyrrolidin-1-yl)-N-(1-(3,4,5-trimethoxyphenyl)-1H-imidazol-4-yl)pyrido[2,3-d]pyrimidin-2-amine] | < 100
Cn1cnc(Nc2nc(N3CCCC3c3ccncc3)nn3cccc23)c1 (centres unmarked) [Compound 20a, N-(1-methyl-1H-imidazol-4-yl)-2-(2-(pyridin-4-yl)pyrrolidin-1-yl)pyrrolo[2,1-f][1,2,4]triazin-4-amine] | 100 to 1000
OCc1cc2nc(N3CCC[C@H]3CO)nc(Nc3cn(-c4ccccc4)cn3)c2s1 [Compound 78f, (S)-(1-(6-(hydroxymethyl)-4-((1-phenyl-1H-imidazol-4-yl)amino)thieno[3,2-d]pyrimidin-2-yl)pyrrolidin-2-yl)methanol] | < 100
COc1cc(-n2cnc(Nc3nc(-c4cccc(C(N)=O)c4)nc4sccc34)c2)cc(OC)c1OC [Compound 146a, 3-(4-((1-(3,4,5-trimethoxyphenyl)-1H-imidazol-4-yl)amino)thieno[2,3-d]pyrimidin-2-yl)benzamide] | < 100
COc1cc(-n2cnc(Nc3nc(N4CCC[C@H]4CO)c4c(C)n[nH]c4n3)c2)cc(OC)c1OC [Compound 402c, (S)-(1-(3-methyl-6-((1-(3,4,5-trimethoxyphenyl)-1H-imidazol-4-yl)amino)-1H-pyrazolo[3,4-d]pyrimidin-4-yl)pyrrolidin-2-yl)methanol] | < 100
COc1cc(-n2cnc(Nc3nc(N4CCC[C@H]4C(N)=O)nc4ncccc34)c2)cc(OC)c1OC [Compound 170a, (S)-1-(4-((1-(3,4,5-trimethoxyphenyl)-1H-imidazol-4-yl)amino)pyrido[2,3-d]pyrimidin-2-yl)pyrrolidine-2-carboxamide] | < 100
COc1cc(-n2cnc(Nc3nc(N4CCC[C@H]4C(N)=O)c4cccn4n3)c2)cc(OC)c1OC [Compound 147b, (S)-1-(2-((1-(3,4,5-trimethoxyphenyl)-1H-imidazol-4-yl)amino)pyrrolo[2,1-f][1,2,4]triazin-4-yl)pyrrolidine-2-carboxamide] | > 1000
COc1ccc(-n2cnc(Nc3nc(N4CCC[C@H]4CO)nn4cccc34)c2)cc1C(F)(F)F [Compound 320b, (S)-(1-(4-((1-(4-methoxy-3-(trifluoromethyl)phenyl)-1H-imidazol-4-yl)amino)pyrrolo[2,1-f][1,2,4]triazin-2-yl)pyrrolidin-2-yl)methanol] | < 100
OC[C@@H]1CCCN1c1nc(Nc2cn(-c3ccc4c(c3)OCO4)cn2)c2cccn2n1 [Compound 425e, (S)-(1-(4-((1-(benzo[d][1,3]dioxol-5-yl)-1H-imidazol-4-yl)amino)pyrrolo[2,1-f][1,2,4]triazin-2-yl)pyrrolidin-2-yl)methanol] | < 100
COc1cc(OC)cc(-n2cnc(Nc3nc(N4CCC[C@H]4C(N)=O)nn4cccc34)c2)c1 [Compound 131a, (S)-1-(4-((1-(3,5-dimethoxyphenyl)-1H-imidazol-4-yl)amino)pyrrolo[2,1-f][1,2,4]triazin-2-yl)pyrrolidine-2-carboxamide] | < 100

Structure (SMILES) | IC50 [nM]
COc1cc(-n2cnc(Nc3nc(-c4cccc(C(N)=O)c4)nn4cccc34)c2)cc(OC)c1OC [Compound 136a, 3-(4-((1-(3,4,5-trimethoxyphenyl)-1H-imidazol-4-yl)amino)pyrrolo[2,1-f][1,2,4]triazin-2-yl)benzamide] | < 100
COc1cc(-n2cnc(Nc3nc4c(c(N5CCC[C@H]5CO)n3)CCN(Cc3cccc(OC(F)(F)F)c3)C4)c2)cc(OC)c1OC [Compound 217a, (S)-(1-(7-(3-(trifluoromethoxy)benzyl)-2-((1-(3,4,5-trimethoxyphenyl)-1H-imidazol-4-yl)amino)-5,6,7,8-tetrahydropyrido[3,4-d]pyrimidin-4-yl)pyrrolidin-2-yl)methanol] | < 100
OC[C@@H]1CCCN1c1nc(Nc2cn(-c3cccc(F)c3)cn2)c2cccn2n1 [Compound 44c, (S)-(1-(4-((1-(3-fluorophenyl)-1H-imidazol-4-yl)amino)pyrrolo[2,1-f][1,2,4]triazin-2-yl)pyrrolidin-2-yl)methanol] | < 100
COc1cc(-n2cnc(Nc3nc(N4CCC[C@H]4C(N)=O)nc4c3ncn4C)c2)cc(OC)c1OC [Compound 387a, (S)-1-(9-methyl-6-((1-(3,4,5-trimethoxyphenyl)-1H-imidazol-4-yl)amino)-9H-purin-2-yl)pyrrolidine-2-carboxamide] | < 100
COc1cc(-n2cnc(Nc3nc(N4C[C@H](O)C[C@H]4CO)c4cccn4n3)c2)cc(OC)c1OC [Compound 214b, (3R,5S)-5-(hydroxymethyl)-1-(2-((1-(3,4,5-trimethoxyphenyl)-1H-imidazol-4-yl)amino)pyrrolo[2,1-f][1,2,4]triazin-4-yl)pyrrolidin-3-ol] | < 100
COc1cc(-n2cnc(Nc3ccc4ccc(Nc5cn(-c6cc(OC)c(OC)c(OC)c6)cn5)cc4c3)c2)cc(OC)c1OC [Compound 208b, N^2,N^7-bis(1-(3,4,5-trimethoxyphenyl)-1H-imidazol-4-yl)naphthalene-2,7-diamine] | < 100
COc1cc(-n2cnc(Nc3nc(N4CCC[C@H]4C(N)=O)nc4cc[nH]c34)c2)cc(OC)c1OC [Compound 162b, (S)-1-(4-((1-(3,4,5-trimethoxyphenyl)-1H-imidazol-4-yl)amino)-5H-pyrrolo[3,2-d]pyrimidin-2-yl)pyrrolidine-2-carboxamide] | < 100
COc1cc(-n2cnc(Nc3nc(N4CC[C@H](N(C)C)C4)nc4ccoc34)c2)cc(OC)c1OC [Compound 261a, (S)-2-(3-(dimethylamino)pyrrolidin-1-yl)-N-(1-(3,4,5-trimethoxyphenyl)-1H-imidazol-4-yl)furo[3,2-d]pyrimidin-4-amine] | < 100
OCc1ccc(-n2cnc(Nc3nc(N4CCC[C@H]4CO)nn4cccc34)c2)cc1 [Compound 436e, (S)-(1-(4-((1-(4-(hydroxymethyl)phenyl)-1H-imidazol-4-yl)amino)pyrrolo[2,1-f][1,2,4]triazin-2-yl)pyrrolidin-2-yl)methanol] | < 100
COC(=O)c1cc(-n2cnc(Nc3nc(N4CCC[C@H]4CO)c4cccn4n3)c2)cc(OC)c1OC [Compound 355a, (S)-methyl 5-(4-((4-(2-(hydroxymethyl)pyrrolidin-1-yl)pyrrolo[2,1-f][1,2,4]triazin-2-yl)amino)-1H-imidazol-1-yl)-2,3-dimethoxybenzoate] | < 100
COc1cc(-n2cnc(Nc3nc4c(c(N5CCCC5)n3)CCN(Cc3ccccc3)C4)c2)cc(OC)c1OC [Compound 225b, 7-benzyl-4-(pyrrolidin-1-yl)-N-(1-(3,4,5-trimethoxyphenyl)-1H-imidazol-4-yl)-5,6,7,8-tetrahydropyrido[3,4-d]pyrimidin-2-amine] | < 100
COc1cc(-n2cnc(Nc3nc(N4CCC[C@H]4CO)nc4cnn(C)c34)c2)cc(OC)c1OC [Compound 316a, (S)-(1-(1-methyl-7-((1-(3,4,5-trimethoxyphenyl)-1H-imidazol-4-yl)amino)-1H-pyrazolo[4,3-d]pyrimidin-5-yl)pyrrolidin-2-yl)methanol] | 100 to 1000
COc1cc(-n2cnc(Nc3nc(N4CCC[C@H]4CO)c4ccn(S(=O)(=O)c5ccc(C)cc5)c4n3)c2)cc(OC)c1OC [Compound 159b, (S)-(1-(7-tosyl-2-((1-(3,4,5-trimethoxyphenyl)-1H-imidazol-4-yl)amino)-7H-pyrrolo[2,3-d]pyrimidin-4-yl)pyrrolidin-2-yl)methanol] | > 1000
OC[C@@H]1CCCN1c1nc(Nc2cn(-c3ccc(F)cc3)cn2)c2ccsc2n1 [Compound 60b, (S)-(1-(4-((1-(4-fluorophenyl)-1H-imidazol-4-yl)amino)thieno[2,3-d]pyrimidin-2-yl)pyrrolidin-2-yl)methanol] | < 100
OC[C@@H]1CCCN1c1nc(Nc2cn(-c3ccccc3)cn2)c2sccc2n1 [Compound 16b, (S)-(1-(4-((1-phenyl-1H-imidazol-4-yl)amino)thieno[3,2-d]pyrimidin-2-yl)pyrrolidin-2-yl)methanol] | < 100
COc1cc(-n2cnc(Nc3nc(N4CCC[C@H]4CO)nc4cc(C#N)ccc34)c2)cc(OC)c1OC [Compound 347a, (S)-2-(2-(hydroxymethyl)pyrrolidin-1-yl)-4-((1-(3,4,5-trimethoxyphenyl)-1H-imidazol-4-yl)amino)quinazoline-7-carbonitrile] | < 100
